Source: patent US20250206727A1, “HETEROCYCLIC SUBSTITUTED AROMATIC COMPOUND, PREPARATION METHOD THEREFOR, HERBICIDAL COMPOSITION AND APPLICATION” (QINGDAO KINGAGROOT CHEMICAL COMPOUND CO., LTD., priority 2022, published 2025)

Experiments:
Assay in all cases: Post-emergence test on weeds (greenhouse, spray at 2-3 leaf stage)
Assay type in all cases: in vivo
Set-up in all cases: key: Level 10: completely dead; Level 9: growth control rate greater than or equal to 90% and less than 100%; Level 8: growth control rate greater than or equal to 80% and less than 90%; Level 7: growth control rate greater than or equal to 70% and less than 80%; Level 6: growth control rate greater than or equal to 60% and less than 70%; Level 5: growth control rate greater than or equal to 50% and less than 60%; Level 4: growth control rate greater than or equal to 40% and less than 50%; Level 3: growth control rate greater than or equal to 30% and less than 40%; Level 2: growth control rate greater than or equal to 20% and less than 30%; Level 1: growth control rate less than 20%; Level 0: no effect
Settings in all cases: 60 g a.i./ha, 3 weeks after application
[1] = system: Amaranthus retroflexus
Excerpt: (§1) The activity level criteria for plant damage (i.e., growth control rate) are as follows: • Level 10: completely dead; • Level 9: growth control rate greater than or equal to 90% and less than 100%; • Level 8: growth control rate greater than or equal to 80% and less than 90%; • Level 7: growth control rate greater than or equal to 70% and less than 80%; • Level 6: growth control rate greater than or equal to 60% and less than 70%; • Level 5: growth control rate greater than or equal to 50% and less than 60%; • Level 4: growth control rate greater than or equal to 40% and less than 50%; • Level 3: growth control rate greater than or equal to 30% and less than 40%; • Level 2: growth control rate greater than or equal to 20% and less than 30%; • Level 1: growth control rate less than 20%; • Level 0: no effect.
(§2) The above growth control rates are fresh weight control rates.
(§3) Monocotyledonous and dicotyledonous weed seeds (Descurainia sophia, Capsella bursa-pastoris, Abutilon theophrasti, Galium spurium, Stellaria media, Lithospermum arvense, Rorippa indica, Alopecurus aequalis, Alopecurus japonicus, Eleusine indica, Beckmannia syzigachne, Sclerochloa dura, Erigeron canadensis, Phleum paniculatum, Veronica polita, Bromus japonicus, Aegilops tauschii, Phalaris arundinacea, Amaranthus retrofexus, Chenopodium, Commelina communis, Cichorium endivia, Convolvulus arvensis, Cirsium arvense, Solanum nigrum, Acalypha australis, Digitaria sanguinalis, Echinochloa crus-galli, Setaria viridis, Setaa pumila, Lepochloa chinensis, Monochona vaginalis, Sagitta trifolia, Schoenoplectiella juncoides, Cypenus rotundus, Cyperus ira, Cyperus difformis, Fimbristylis, Portulaca oleracea, Xanthium sibiricum, Ipomoea nil, Eschenbachia japonica, etc.) and major crop seeds (wheat, maize, paddy rice, soybean, cotton, oilseed rape, millet, sorghum, potato, sesame, castor plant, etc.) were placed in plastic pots filled with soil and then covered with 0.5-2 cm of soil to allow them to grow in a favorable greenhouse environment. Two weeks after sowing, the test plants were treated at the stage of 2-3 leaves. The test compounds of the present invention were individually dissolved with acetone, then added with Tween® 80, with 1.5 L/ha of methyl oleate emulsifiable concentrate as a synergist, diluted into solutions of certain concentrations using certain amount of water, and sprayed to the plants using a spray tower. After drug application, the experimental results on weeds were collected after 3 weeks of cultivation in a greenhouse. The compounds were applied at 500, 250, […], 15, and 7.5 g a.i./ha in triplicate, and the results were averaged.

[2] = system: Digitaria sanguinalis
Excerpt: as §1, §2, §3

[3] = system: Echinochloa crus-galli
Excerpt: as §1, §2, §3

[4] = system: Setaria viridis
Excerpt: as §1, §2, §3

[5] = system: Veronica polita
Excerpt: as §1, §2, §3

[6] = system: Abutilon theophrasti
Excerpt: as §1, §2, §3

CCSC(=O)C1(C)ON=C(c2cc(-c3ncc(C(F)(F)F)cc3Cl)c(F)cc2Cl)O1 (stereo not drawn) [Compound 85]
10: activity level (fresh weight growth control rate), Amaranthus retroflexus [1] | activity level (fresh weight growth control rate), Digitaria sanguinalis [2] | activity level (fresh weight growth control rate), Echinochloa crus-galli [3] | activity level (fresh weight growth control rate), Setaria viridis [4] | activity level (fresh weight growth control rate), Veronica polita [5] | activity level (fresh weight growth control rate), Abutilon theophrasti [6]

CCCOC(=O)C1(C)ON=C(c2cc(-c3ncc(C(F)(F)F)cc3Cl)c(F)cc2Cl)O1 (stereo not drawn) [Compound 86]
10: activity level (fresh weight growth control rate), Amaranthus retroflexus [1] | activity level (fresh weight growth control rate), Digitaria sanguinalis [2] | activity level (fresh weight growth control rate), Echinochloa crus-galli [3] | activity level (fresh weight growth control rate), Setaria viridis [4] | activity level (fresh weight growth control rate), Veronica polita [5] | activity level (fresh weight growth control rate), Abutilon theophrasti [6]

COCCOC(=O)C1(C)ON=C(c2cc(-c3ncc(C(F)(F)F)cc3Cl)c(F)cc2Cl)O1 (stereo not drawn) [Compound 110]
10: activity level (fresh weight growth control rate), Amaranthus retroflexus [1] | activity level (fresh weight growth control rate), Digitaria sanguinalis [2] | activity level (fresh weight growth control rate), Echinochloa crus-galli [3] | activity level (fresh weight growth control rate), Setaria viridis [4] | activity level (fresh weight growth control rate), Veronica polita [5] | activity level (fresh weight growth control rate), Abutilon theophrasti [6]

CCCCOC(=O)C1(C)ON=C(c2cc(-c3ncc(C(F)(F)F)cc3Cl)c(F)cc2Cl)O1 (stereo not drawn) [Compound 89]
10: activity level (fresh weight growth control rate), Amaranthus retroflexus [1] | activity level (fresh weight growth control rate), Digitaria sanguinalis [2] | activity level (fresh weight growth control rate), Echinochloa crus-galli [3] | activity level (fresh weight growth control rate), Setaria viridis [4] | activity level (fresh weight growth control rate), Veronica polita [5] | activity level (fresh weight growth control rate), Abutilon theophrasti [6]

COC(=O)C1(C2CC2)ON=C(c2cc(-c3ncc(Cl)cc3F)c(F)cc2Cl)O1 (stereo not drawn) [Compound 21]
10: activity level (fresh weight growth control rate), Amaranthus retroflexus [1] | activity level (fresh weight growth control rate), Digitaria sanguinalis [2] | activity level (fresh weight growth control rate), Echinochloa crus-galli [3] | activity level (fresh weight growth control rate), Setaria viridis [4] | activity level (fresh weight growth control rate), Veronica polita [5] | activity level (fresh weight growth control rate), Abutilon theophrasti [6]

CCOC(C)=NOC(=O)C1(C)ON=C(c2cc(-c3ncc(C(F)(F)F)cc3Cl)c(F)cc2Cl)O1 (racemic) [Compound 141]
10: activity level (fresh weight growth control rate), Amaranthus retroflexus [1] | activity level (fresh weight growth control rate), Digitaria sanguinalis [2] | activity level (fresh weight growth control rate), Echinochloa crus-galli [3] | activity level (fresh weight growth control rate), Setaria viridis [4] | activity level (fresh weight growth control rate), Veronica polita [5] | activity level (fresh weight growth control rate), Abutilon theophrasti [6]

COC(=O)C1(C)ON=C(c2cc(-c3ncc(OC(F)F)cc3Cl)c(F)cc2Cl)O1 (stereo not drawn) [Compound 3]
10: activity level (fresh weight growth control rate), Amaranthus retroflexus [1] | activity level (fresh weight growth control rate), Digitaria sanguinalis [2] | activity level (fresh weight growth control rate), Echinochloa crus-galli [3] | activity level (fresh weight growth control rate), Setaria viridis [4] | activity level (fresh weight growth control rate), Veronica polita [5] | activity level (fresh weight growth control rate), Abutilon theophrasti [6]

CC1(C(=O)ON=Cc2ccco2)ON=C(c2cc(-c3ncc(C(F)(F)F)cc3Cl)c(F)cc2Cl)O1 (racemic) [Compound 143]
10: activity level (fresh weight growth control rate), Amaranthus retroflexus [1] | activity level (fresh weight growth control rate), Digitaria sanguinalis [2] | activity level (fresh weight growth control rate), Echinochloa crus-galli [3] | activity level (fresh weight growth control rate), Setaria viridis [4] | activity level (fresh weight growth control rate), Veronica polita [5] | activity level (fresh weight growth control rate), Abutilon theophrasti [6]

CC1(C(=O)OCCCF)ON=C(c2cc(-c3ncc(C(F)(F)F)cc3Cl)c(F)cc2Cl)O1 (stereo not drawn) [Compound 103]
10: activity level (fresh weight growth control rate), Amaranthus retroflexus [1] | activity level (fresh weight growth control rate), Digitaria sanguinalis [2] | activity level (fresh weight growth control rate), Echinochloa crus-galli [3] | activity level (fresh weight growth control rate), Setaria viridis [4] | activity level (fresh weight growth control rate), Veronica polita [5] | activity level (fresh weight growth control rate), Abutilon theophrasti [6]

CC(=NOC(=O)C1(C)ON=C(c2cc(-c3ncc(C(F)(F)F)cc3Cl)c(F)cc2Cl)O1)C(F)(F)F (racemic) [Compound 139]
10: activity level (fresh weight growth control rate), Amaranthus retroflexus [1] | activity level (fresh weight growth control rate), Digitaria sanguinalis [2] | activity level (fresh weight growth control rate), Echinochloa crus-galli [3] | activity level (fresh weight growth control rate), Setaria viridis [4] | activity level (fresh weight growth control rate), Veronica polita [5] | activity level (fresh weight growth control rate), Abutilon theophrasti [6]
